Laboratory results published in patent US4065570A (priority 1975, dated 1977).
≈ marks a conversion by molar mass, not a printed value. Where “and” joins values, the source holds several entries; their conditions need not be identical. Identical values can stand only once.

Columns and labels:
[1] = test system: Polio I; assay: cells; format: cell-based; conditions: Primates
[2] = test system: viruses of the Picorna group; assay: antiviral activity (general statements); format: cell-based; conditions: result in words
Protocol: The in vitro activity of representative compounds of the present invention are set forth below.
(§1) In preparing the compounds for testing, they were handled aseptically throughout. The compounds were dissolved in a minimum amount of a suitable solvent, and the final dilutions were made up to the required volume in a complete culture medium in a concentration not exceeding the predetermined maximum non-cytotoxic levels.
(§2) The cell cultures used in all primary in vitro antipicorna virus screening tests were an established cell line of the African green monkey kidney (VERO), a primary cell culture of the Cercopythecus monkey kidney, or human embryonic lung diploid cells WI-38.
(§3) The cells were grown in test tubes in a suitable medium. Immediately before use the initial medium was replaced with the one which contained the test compound in an appropriate concentration. After the virus was added, the infected culture was incubated at 37° C for a number of days and the cytopathic effect of the virus observed and recorded. The results were read every day in all of the tubes and the destruction of cells assessed in precentage of the cell sheet destroyed: 0-25-50-75-100%. As controls, cells with only virus (for cytopathic effect) or with only the compound (for cytotoxic effect) were used as well as the normal, uninfected cells (no cytotoxic -- no cytopathic effects).
Net difference in cytopathic effect between treated and control tubes expressed in percentage give the extent of the inhibitory activity of the substance.

[3] = cytotoxicity against Vero cells; format: cell-based, African green monkey; conditions: african green monkey
Protocol: as §1, §2
(§4) The cytotoxic stuides were performed on each of the compounds to determine the level of response of the cells used to the potentially toxic action of the substances.
as §3

[4] = test system: Polio I; assay: organism not typed; format: cell-based; conditions: Vero
[5] = test system: Vero cells; assay: cytotoxicity against Vero cells; format: cell-based, African green monkey; conditions: Vero cells; for Cytotoxicity CTD50: 50% inhibition of the cell growth; for Cytotoxicity CTD0: maximal non-toxic concentration
Protocol: as §1, §2, §4, §3

COc1ccc(C=C2NC(=O)NC2=O)cc1OC [5-(3',4'-DIMETHOXYBENZAL) HYDANTOIN, 5-(3',4'-Dimethoxybenzal) hydantoin]
inhibition at 50 µg/mL [1]: 34% | inhibition at 100 µg/mL [1]: 45%

COc1ccc(C=C2C(=O)N(C(C)=O)C(=O)N2C(C)=O)cc1OC [Example 32, N,N-diacetylated 5-(3',4'-dimethoxybenzal) hydantoin]
anti-viral activity in tissue culture tests [2]: much greater anti-viral activity than the former | CC50 ([3]; vero cells, read-out: Cytotoxicity CTD50): 33 µg/mL (≈ 99.3 µM) | MNTC ([3]; Vero cells, maximal non-toxic concentration, read-out: Cytotoxicity CTD0): 10 µg/mL | inhibition at 1 µg/mL ([4]; 316 TCID50, 1 μg/ml): 100% | inhibition at 5 µg/mL ([4]; 316 TCID50, 5 μg/ml): 100% | inhibition at 10 µg/mL ([4]; 316 TCID50, 10 μg/ml): 100% | inhibition at 50 µg/mL ([4]; 316 TCID50, 50 μg/ml): 100%

Acetylated 5-(2',4',5'-trimethoxybenzal) hydantoin [Example 22]
Cytotoxicity CTD50 [5]: > 100 µg/mL | Cytotoxicity CTD0 [5]: 1 µg/mL | % Inhibition ([4]; 10 TCID50, 0.01 μg/ml): 4% | % Inhibition ([4]; 10 TCID50, 0.03 μg/ml): 8% | % Inhibition ([4]; 10 TCID50, 0.07 μg/ml): 27% | % Inhibition ([4]; 10 TCID50, 0.1 μg/ml): 54% | % Inhibition ([4]; 10 TCID50, 0.3 μg/ml): 98% | % Inhibition ([4]; 10 TCID50, 0.7 μg/ml): 98% | % Inhibition ([4]; 10 TCID50, 1 μg/ml): 100% | % Inhibition ([4]; 100 TCID50, 0.01 μg/ml): 0% | % Inhibition ([4]; 100 TCID50, 0.03 μg/ml): 0% | % Inhibition ([4]; 100 TCID50, 0.07 μg/ml): 25% | % Inhibition ([4]; 100 TCID50, 0.1 μg/ml): 50% | % Inhibition ([4]; 100 TCID50, 0.3 μg/ml): 90% | % Inhibition ([4]; 100 TCID50, 0.7 μg/ml): 93% | % Inhibition ([4]; 100 TCID50, 1 μg/ml): 100%

Acetylated 5-(3',4',5'-trimethoxybenzal) hydantoin [Example 23]
Cytotoxicity CTD50 [5]: 50 µg/mL | Cytotoxicity CTD0 [5]: 10 µg/mL | % Inhibition ([4]; 316 TCID50, 0.1 μg/ml): 0% | % Inhibition ([4]; 316 TCID50, 0.3 μg/ml): 14% | % Inhibition ([4]; 316 TCID50, 0.7 μg/ml): 36% | % Inhibition ([4]; 316 TCID50, 1 μg/ml): 46% | % Inhibition ([4]; 316 TCID50, 3.3 μg/ml): 56% | % Inhibition ([4]; 316 TCID50, 6.7 μg/ml): 72% | % Inhibition ([4]; 316 TCID50, 10 μg/ml): 96%

Acetylated 5-(3',4'-dimethoxybenzal) hydantoin
degree of antiviral activity ([2]; listed as Example 30): highly effective against Picorna group of viruses | degree of antiviral activity ([2]; listed as acetylated 5-(3',4'-dimethoxybenzal) hydantoin (anhydrous sodium acetate and ace)): exceptionally good antiviral activity

Acetylated 5-(3',5'-dimethoxybenzal) hydantoin [Example 21]
Cytotoxicity CTD50 [5]: > 100 µg/mL and 100 µg/mL | Cytotoxicity CTD0 [5]: 100 µg/mL | % Inhibition ([4]; 10 TCID50, 0.5 μg/ml): 15% | % Inhibition ([4]; 10 TCID50, 1 μg/ml): 50% | % Inhibition ([4]; 10 TCID50, 5 μg/ml): 100% | % Inhibition ([4]; 10 TCID50, 10 μg/ml): 100% | % Inhibition ([4]; 100 TCID50, 0.5 μg/ml): 0% | % Inhibition ([4]; 100 TCID50, 1 μg/ml): 32% | % Inhibition ([4]; 100 TCID50, 5 μg/ml): 100% | % Inhibition ([4]; 100 TCID50, 10 μg/ml): 100%

Acetylated 5-(3'-methoxy-4'-acetoxybenzal) hydantoin [Example 15]
Cytotoxicity CTD50 [5]: > 100 µg/mL | Cytotoxicity CTD0 [5]: > 10 µg/mL

Acetylated 5-benzalhydantoin [Example 16]
Cytotoxicity CTD50 [5]: 83 µg/mL | Cytotoxicity CTD0 [5]: 10 µg/mL

N-monoacetylated 5-(3',4'-dimethoxybenzal) hydantoin [Example 31]
anti-viral activity in tissue culture tests [2]: more active than the unacetylated compound | Cytotoxicity CTD50 [5]: 100 µg/mL | Cytotoxicity CTD0 [5]: 10 µg/mL | % Inhibition ([4]; 316 TCID50, 1 μg/ml): 0% | % Inhibition ([4]; 316 TCID50, 5 μg/ml): 0% | % Inhibition ([4]; 316 TCID50, 10 μg/ml): 7% | % Inhibition ([4]; 316 TCID50, 50 μg/ml): 84%
